Assays:
[1] = tested on: pAKT(S473) in FaDu cell line; experiment: In vitro Phospho-AKT(S473) HTRF analysis in FaDu cells; type: cell-based; conditions: Homo sapiens, 0.5 h; for IC50: FaDu cells, 30 minutes at 37° C.; for Emax: FaDu, read-out: FaDu pAKT Imax % control
Method in brief: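 FaDu or H358 cells were plated overnight in medium with 1% FBS, then exposed to a compound dose response for 30 minutes at 37° C. Phospho-AKT(S473) levels were measured by HTRF.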

[2] = tested on: pAKT(S473) in H358 cell line; experiment: In vitro Phospho-AKT(S473) HTRF analysis in H358 cells; type: cell-based; conditions: Homo sapiens, NCI-H358, 0.5 h; for IC50: H358 cells, 30 minutes at 37° C.; for Emax: read-out: H358 pAKT Imax % control
Method: Example 5. In Vitro Phosgho-AKT(S473) Analysis
Functional activity of the compounds to inhibit pAKT were assessed in FaDu or H358 cell lines as indicated below.
• Complete Media • FBS, Corning catalog #35-010-CV • Anti-Anti, Gibco catalog #15240-062 • 96 well plate, Corning catalog #3610 • TrypLE, Gibco catalog #12604013 • Phospho-AKT(S473) HTRF kit, Cisbio catalog #64AKSPET
Cells were detached from the tissue culture flask with TrypLE. The cells were pelleted at 500×g for 5 min, TrypLe was removed and then resuspended in the necessary volume of media+1% FBS to give the appropriate cell density (17,500 cells/mL for FaDu; 20,000 cells/mL for H358). 100 μL of cell suspension/well was dispensed into the 96-well plate while keeping the outer wells of the plate free of cells and filled with PBS to prevent evaporation of interior wells. The plate was incubated at 37° C. and allowed to adhere overnight. The cells were treated with a dose response of compound and incubated at 37° C. for 30 minutes. The cells were then processed and pAKT(S473) levels were assessed following the specifications of the Cisbio HTRF kit.

[3] = target: T1, PIK3CA (Homo sapiens, UniProt P42336); experiment: In vitro ELISA target engagement assay for PIK3CA in Jurkat cellular lysate (competition with PIK3CA Biotin Probe); type: binding; conditions: 1 hour at rt, then 500 nM PIK3CA Biotin Probe, read-out: Elisa Target Engagement Assay (TE50)
T1 construct: endogenous in cells; host or cells: Jurkat cell lysate
Method in brief: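 Jurkat lysate from sonicated frozen cells was preincubated 1 h at rt with serially diluted compound up to 200 μM, then labelled 1 h at rt with PIK3CA biotin probe at 500 nM final. Probe-bound PIK3CA was captured on antibody-coated plates and detected with Neutravidin-HRP luminescence; TE50 derived from the dose response.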

T1 sequence (P42336 whole entry): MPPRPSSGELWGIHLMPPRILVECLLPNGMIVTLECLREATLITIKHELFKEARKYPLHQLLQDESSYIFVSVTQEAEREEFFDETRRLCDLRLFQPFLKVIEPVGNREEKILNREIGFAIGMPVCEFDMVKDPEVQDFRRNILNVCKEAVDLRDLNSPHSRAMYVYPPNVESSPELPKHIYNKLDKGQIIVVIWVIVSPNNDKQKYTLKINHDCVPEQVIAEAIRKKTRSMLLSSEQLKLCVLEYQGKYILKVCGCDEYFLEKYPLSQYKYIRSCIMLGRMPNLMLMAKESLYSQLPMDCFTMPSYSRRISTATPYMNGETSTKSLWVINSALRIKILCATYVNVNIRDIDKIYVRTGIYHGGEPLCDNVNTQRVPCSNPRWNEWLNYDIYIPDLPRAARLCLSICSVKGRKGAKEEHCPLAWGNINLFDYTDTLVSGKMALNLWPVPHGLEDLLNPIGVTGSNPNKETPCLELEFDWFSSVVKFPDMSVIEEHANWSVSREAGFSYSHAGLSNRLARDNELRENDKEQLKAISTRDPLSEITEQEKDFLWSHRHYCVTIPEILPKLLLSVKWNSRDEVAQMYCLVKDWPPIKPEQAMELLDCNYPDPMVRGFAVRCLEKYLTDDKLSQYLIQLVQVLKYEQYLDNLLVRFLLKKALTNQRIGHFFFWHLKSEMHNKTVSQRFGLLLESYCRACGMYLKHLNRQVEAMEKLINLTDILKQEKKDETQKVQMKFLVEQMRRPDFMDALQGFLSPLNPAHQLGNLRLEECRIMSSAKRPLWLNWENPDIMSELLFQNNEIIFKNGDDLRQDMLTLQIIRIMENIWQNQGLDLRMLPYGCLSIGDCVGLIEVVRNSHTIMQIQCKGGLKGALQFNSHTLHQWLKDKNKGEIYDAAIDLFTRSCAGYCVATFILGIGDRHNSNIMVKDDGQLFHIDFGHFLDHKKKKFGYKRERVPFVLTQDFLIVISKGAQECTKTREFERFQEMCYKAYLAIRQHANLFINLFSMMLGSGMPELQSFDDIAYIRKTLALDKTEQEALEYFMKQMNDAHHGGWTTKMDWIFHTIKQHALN
T1 sequence (P27986 whole entry partner): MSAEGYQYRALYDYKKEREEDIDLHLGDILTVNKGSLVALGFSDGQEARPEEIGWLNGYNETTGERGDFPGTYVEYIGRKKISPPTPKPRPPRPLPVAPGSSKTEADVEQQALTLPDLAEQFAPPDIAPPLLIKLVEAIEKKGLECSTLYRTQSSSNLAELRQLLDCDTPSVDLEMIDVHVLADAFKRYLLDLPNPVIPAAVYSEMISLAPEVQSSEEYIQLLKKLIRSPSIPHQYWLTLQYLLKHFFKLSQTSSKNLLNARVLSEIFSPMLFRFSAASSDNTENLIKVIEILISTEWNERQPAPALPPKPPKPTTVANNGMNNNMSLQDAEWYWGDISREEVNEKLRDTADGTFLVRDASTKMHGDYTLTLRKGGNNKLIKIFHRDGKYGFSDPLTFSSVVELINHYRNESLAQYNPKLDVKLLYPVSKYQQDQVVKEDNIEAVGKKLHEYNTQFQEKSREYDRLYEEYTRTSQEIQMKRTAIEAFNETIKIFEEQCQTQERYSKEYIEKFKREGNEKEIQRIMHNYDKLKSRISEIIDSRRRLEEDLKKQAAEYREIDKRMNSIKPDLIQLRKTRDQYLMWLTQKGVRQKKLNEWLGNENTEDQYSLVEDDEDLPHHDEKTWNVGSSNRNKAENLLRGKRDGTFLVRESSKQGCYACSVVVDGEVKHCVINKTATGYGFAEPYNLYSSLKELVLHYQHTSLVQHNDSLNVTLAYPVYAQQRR

Structure (SMILES)	IC50 [1]	Emax [1]	IC50 [2]	Emax [2]	IC50 [3]
C[C@H](/C=C\S(C)(=O)=O)NC(=O)[C@@]1(F)CCCN(C(=O)[C@@H]2CCN(CC(F)(F)F)C[C@H]2c2ccccc2Cl)CC1 (single isomer, unassigned) [Compound 306, (R)-1-((3*R,4*R)-3-(2-chlorophenyl)-1-(2,2,2-trifluoroethyl)piperidine-4-carbonyl)-4-fluoro-N-((R,Z)-4-(methylsulfonyl)but-3-en-2-yl)azepane-4-carboxamide]	334 nM	93%	263 nM	88%	310 nM
C[C@H](/C=C\S(C)(=O)=O)NC(=O)[C@@]1(F)CCCN(C(=O)[C@H]2CN(CC(F)(F)F)CC[C@@H]2c2ccccc2Cl)CC1 (single isomer, unassigned) [Compound 308, (R)-1-((3*R,4*S)-4-(2-chlorophenyl)-1-(2,2,2-trifluoroethyl)piperidine-3-carbonyl)-4-fluoro-N-((R,Z)-4-(methylsulfonyl)but-3-en-2-yl) azepane-4-carboxamide]	580 nM	93.4%	408 nM	91%	850 nM
C[C@H](/C=C\S(C)(=O)=O)NC(=O)[C@@]1(F)CCCN(C(=O)[C@H]2CN(CC(F)(F)F)C[C@H]2c2ccccc2Cl)CC1 [Compound 165, (R)-1-((3R,4R)-4-(2-chlorophenyl)-1-(2,2,2-trifluoroethyl)pyrrolidine-3-carbonyl)-4-fluoro-N—((R,Z)-4-(methylsulfonyl)but-3-en-2-yl)azepane-4-carboxamide]	214 nM	96.7%	115 nM	95.7%	164 nM
C[C@H](/C=C\S(C)(=O)=O)NC(=O)[C@@]1(F)CCCN(C(=O)[C@H]2CN(CC(F)(F)F)C[C@H]2c2c(F)cccc2Cl)CC1 [Compound 171, (R)-1-((3R,4R)-4-(2-chloro-6-fluorophenyl)-1-(2,2,2-trifluoroethyl)pyrrolidine-3-carbonyl)-4-fluoro-N—((R,Z)-4-(methylsulfonyl)but-3-en-2-yl)azepane-4-carboxamide]	78.9 nM	97.8%	82.6 nM	101%	92.7 nM
C[C@H](/C=C\S(C)(=O)=O)NC(=O)[C@@]1(F)CCCN(C(=O)[C@H]2CN(CC(F)(F)Cl)C[C@H]2c2ccccc2Cl)CC1 [Compound 195, (R)-1-((3R,4R)-1-(2-chloro-2,2-difluoroethyl)-4-(2-chlorophenyl)pyrrolidine-3-carbonyl)-4-fluoro-N-((R,Z)-4-(methylsulfonyl)but-3-en-2-yl)azepane-4-carboxamide]	113 nM	96.9%	123 nM	85%	190 nM
C[C@H](/C=C\S(C)(=O)=O)NC(=O)[C@@]1(F)CCCN(C(=O)[C@H]2CN(CCC(F)(F)F)C[C@H]2c2ccccc2Cl)CC1 [Compound 196, (R)-1-((3R,4R)-4-(2-chlorophenyl)-1-(3,3,3-trifluoropropyl)pyrrolidine-3-carbonyl)-4-fluoro-N-((R,Z)-4-(methylsulfonyl)but-3-en-2-yl)azepane-4-carboxamide]	450 nM	86.4%	329 nM	96.3%	530 nM
C[C@H](/C=C\S(C)(=O)=O)NC(=O)[C@@]1(F)CCCN(C(=O)[C@H]2CN(CC(F)F)C[C@H]2c2ccccc2Cl)CC1 [Compound 197, (R)-1-((3R,4R)-4-(2-chlorophenyl)-1-(2,2-difluoroethyl)pyrrolidine-3-carbonyl)-4-fluoro-N-((R,Z)-4-(methylsulfonyl)but-3-en-2-yl) azepane-4-carboxamide]	129 nM	89%	103 nM	91.4%	134 nM
C[C@@H](/C=C\S(C)(=O)=O)NC(=O)C1(F)CCN(S(=O)(=O)c2cnc(C(F)(F)F)cc2-c2ccccc2Cl)CC1 [Compound 208, (S,Z)-1-((4-(2-chlorophenyl)-6-(trifluoromethyl)pyridin-3-yl)sulfonyl)-4-fluoro-N-(4-(methylsulfonyl)but-3-en-2-yl)piperidine-4-carboxamide]	88.2 nM		81.6 nM	95.9%	53.7 nM

Reference: patent publication US20250026721A1, “COMPOUNDS AND METHODS FOR MODULATING RAS-PI3K” (Vividion Therapeutics, Inc., priority 2023, published 2025)
